Test: Example 4 Group B: safety (adverse events) in genotype 1 HCV-infected subjects
Format: in vivo, human
Method: Five sequential cohorts of 3 HCV-infected subjects (HCV) per cohort received under fasted conditions open-label Compound I at single ascending doses of 10, 25, 50, 150, and 300 mg (below, “Group B”).
For Groups A and B, dosing occurred between approximately 08:00 AM and 10:00 AM on each dosing day. Dosing was fasted for all subjects in Groups A and B. For fasted dosing, subjects observed a fasting period of approximately 10 hours prior to each dose and for an additional 4 hours post-dose.
Safety measurements included clinical history, routine laboratory evaluation, physical examination, 12-lead ECG, vital signs, adverse event (AE) assessment.

CC(C)OC(=O)[C@@H](C)N[P@@](=O)(OC[C@H]1O[C@@H](n2ccc(=O)[nH]c2=O)[C@](C)(Cl)[C@@H]1O)Oc1ccccc1 [Compound I]
Adverse event: Constipation (10 mg single dose (n = 3)): 0 n, %
Adverse event: Diarrhea (10 mg single dose (n = 3)): 0 n, %
Adverse event: Dry mouth (10 mg single dose (n = 3)): 0 n, %
Adverse event: Dry skin (10 mg single dose (n = 3)): 0 n, %
Adverse event: Dysuria (10 mg single dose (n = 3)): 0 n, %
Adverse event: Fatigue (10 mg single dose (n = 3)): 0 n, %
Adverse event: Feces hard (10 mg single dose (n = 3)): 0 n, %
Adverse event: Flatulence (10 mg single dose (n = 3)): 0 n, %
Adverse event: Headache (10 mg single dose (n = 3)): 0 n, %
Adverse event: Myalgia (10 mg single dose (n = 3)): 1 (33.3) n, %
Adverse event: Neck pain (10 mg single dose (n = 3)): 0 n, %
Adverse event: Pruritus (10 mg single dose (n = 3)): 0 n, %
Adverse event: Pruritus generalized (10 mg single dose (n = 3)): 0 n, %
Adverse event: Vessel puncture site bruise (10 mg single dose (n = 3)): 0 n, %
Subjects with AE (10 mg single dose (n = 3)): 1 (33.3) n, %
Adverse event: Constipation (25 mg single dose (n = 3)): 1 (33.3) n, %
Adverse event: Diarrhea (25 mg single dose (n = 3)): 0 n, %
Adverse event: Dry mouth (25 mg single dose (n = 3)): 0 n, %
Adverse event: Dry skin (25 mg single dose (n = 3)): 0 n, %
Adverse event: Dysuria (25 mg single dose (n = 3)): 0 n, %
Adverse event: Fatigue (25 mg single dose (n = 3)): 1 (33.3) n, %
Adverse event: Feces hard (25 mg single dose (n = 3)): 0 n, %
Adverse event: Flatulence (25 mg single dose (n = 3)): 1 (33.3) n, %
Adverse event: Headache (25 mg single dose (n = 3)): 1 (33.3) n, %
Adverse event: Myalgia (25 mg single dose (n = 3)): 0 n, %
Adverse event: Neck pain (25 mg single dose (n = 3)): 1 (33.3) n, %
Adverse event: Pruritus (25 mg single dose (n = 3)): 0 n, %
Adverse event: Pruritus generalized (25 mg single dose (n = 3)): 0 n, %
Adverse event: Vessel puncture site bruise (25 mg single dose (n = 3)): 0 n, %
Subjects with AE (25 mg single dose (n = 3)): 2 (66.7) n, %
Adverse event: Constipation (50 mg single dose (n = 3)): 0 n, %
Adverse event: Diarrhea (50 mg single dose (n = 3)): 0 n, %
Adverse event: Dry mouth (50 mg single dose (n = 3)): 0 n, %
Adverse event: Dry skin (50 mg single dose (n = 3)): 0 n, %
Adverse event: Dysuria (50 mg single dose (n = 3)): 1 (33.3) n, %
Adverse event: Fatigue (50 mg single dose (n = 3)): 0 n, %
Adverse event: Feces hard (50 mg single dose (n = 3)): 0 n, %
Adverse event: Flatulence (50 mg single dose (n = 3)): 0 n, %
Adverse event: Headache (50 mg single dose (n = 3)): 0 n, %
Adverse event: Myalgia (50 mg single dose (n = 3)): 0 n, %
Adverse event: Neck pain (50 mg single dose (n = 3)): 0 n, %
Adverse event: Pruritus (50 mg single dose (n = 3)): 0 n, %
Adverse event: Pruritus generalized (50 mg single dose (n = 3)): 0 n, %
Adverse event: Vessel puncture site bruise (50 mg single dose (n = 3)): 0 n, %
Subjects with AE (50 mg single dose (n = 3)): 1 (33.3) n, %
Adverse event: Constipation (150 mg single dose (n = 3)): 0 n, %
Adverse event: Diarrhea (150 mg single dose (n = 3)): 0 n, %
Adverse event: Dry mouth (150 mg single dose (n = 3)): 1 (33.3) n, %
Adverse event: Dry skin (150 mg single dose (n = 3)): 1 (33.3) n, %
Adverse event: Dysuria (150 mg single dose (n = 3)): 0 n, %
Adverse event: Fatigue (150 mg single dose (n = 3)): 1 (33.3) n, %
Adverse event: Feces hard (150 mg single dose (n = 3)): 0 n, %
Adverse event: Flatulence (150 mg single dose (n = 3)): 0 n, %
Adverse event: Headache (150 mg single dose (n = 3)): 0 n, %
Adverse event: Myalgia (150 mg single dose (n = 3)): 0 n, %
Adverse event: Neck pain (150 mg single dose (n = 3)): 0 n, %
Adverse event: Pruritus (150 mg single dose (n = 3)): 1 (33.3) n, %
Adverse event: Pruritus generalized (150 mg single dose (n = 3)): 1 (33.3) n, %
Adverse event: Vessel puncture site bruise (150 mg single dose (n = 3)): 0 n, %
Subjects with AE (150 mg single dose (n = 3)): 2 (66.7) n, %
Adverse event: Constipation (300 mg single dose (n = 3)): 0 n, %
Adverse event: Diarrhea (300 mg single dose (n = 3)): 1 (33.3) n, %
Adverse event: Dry mouth (300 mg single dose (n = 3)): 0 n, %
Adverse event: Dry skin (300 mg single dose (n = 3)): 0 n, %
Adverse event: Dysuria (300 mg single dose (n = 3)): 0 n, %
Adverse event: Fatigue (300 mg single dose (n = 3)): 0 n, %
Adverse event: Feces hard (300 mg single dose (n = 3)): 1 (33.3) n, %
Adverse event: Flatulence (300 mg single dose (n = 3)): 0 n, %
Adverse event: Headache (300 mg single dose (n = 3)): 0 n, %
Adverse event: Myalgia (300 mg single dose (n = 3)): 0 n, %
Adverse event: Neck pain (300 mg single dose (n = 3)): 0 n, %
Adverse event: Pruritus (300 mg single dose (n = 3)): 0 n, %
Adverse event: Pruritus generalized (300 mg single dose (n = 3)): 0 n, %
Adverse event: Vessel puncture site bruise (300 mg single dose (n = 3)): 1 (33.3) n, %
Subjects with AE (300 mg single dose (n = 3)): 2 (66.7) n, %
